Assay results reported in patent US6436705B1, “Shape stabilized erythrocytes” (The United States of America as represented by the …, priority 1997, dated 2002).

What was measured:
Red blood cells = experiment: Deformability measurements with an ektacytometer (Shear-scan, Osmo-scan); type: cell-based, human; conditions: 5 mM DTBP for 1 h
Procedure: Red blood cells were cross-linked with 5 mM DTBP for 1 h. Cross-linking was reversed with 10 mM DTT for 20 min. Deformability measurements were made with fresh untreated, cross-linked, and reversed cells as well as with untreated packed cells stored in CPDA-1 for 6 weeks at 4° C. The effects of cross-linking and reversal on red blood cell deformability were measured with an ektacytometer (Technicon).
The ektacytometer is a laser diffraction viscometer described in detail by Bessiss and Mohandas. Intact red blood cells and ghosts suspended in solution produce a diffuse circular laser diffraction pattern. The instrument takes advantage of the fact that when a shear force is applied to the solution crossing the beam the cells align in the direction of shear and begin deforming into uniformly oriented ellipsoids. The laser diffraction pattern then takes on an ellipsoidal shape oriented 90° from the major elliptical cell axis, with the ratio of the long axis to the short axis length determined by the degree of cell deformation. A signal proportional to mean cellular ellipticity is derived from photometric measurement of this laser diffraction pattern in the two axis directions and is designated the deformability index (DI).
Two types of deformability profiles were generated in the present experiments. […] Shear-scans were run with 40 μl of concentrated cell suspension (80% hematocrit) mixed with 3.0 ml of 3.1% (w/v) polyvinylpyrrolidone (P, av-MW 360 kD) solution containing 138 mM NaCl, 6.34 mM Na2HPO4, 2 mM NaH2PO4, and 0.04% (w/v) NaN3 with pH=7.35±0.05, osmolality=290 mOsmol/kg (by freezing point depression), and viscosity=20 cp (assumed). Osmo-scans were run by continuous addition of this suspension medium containing 100 μl of cells to a PVP solution with a graded salt concentration. Salt gradients were made by addition of high salt PVP solution with 386 mM NaCI (osmolality=750 mOsmol/kg) to a low salt PVP solution with 2.5 mM NaCl (osmolality=40 mOsmol/kg). Conductance measurements of the cell suspension in the viscometer provided an indirect measure of osmolality, which was calculated from a standard calibration curve.
Data was recorded onto a computer, and curves were fitted and plotted using custom routines in Matlab (The Math Works Inc, Natick, Mass.). Shear scans were fitted with a polynomial of degree 6 from which the maximum DI (DImax) was calculated. Osmo-scans were fitted with a running average, and DImax was calculated within the range of 180-240 mOsmol/Kg, along with the osmolality corresponding to 1/2DImax at hypertonic salt concentrations (0′), where DI decreases with increasing intracellular viscosity secondary to cell shrinkage and increased hemoglobin concentration (see Mohandas et al., J. Clin. Invest. 66563-73(1980)). The osmolality corresponding to the minimum DI (Omin) at hypotonic salt concentrations, where DI falls due to cell swelling, was also calculated. The height of the small DI peak thought to be associated with the sudden availability of excess membrane for deformation as intracellular ions and water are lost in the lower range of hypotonic salt (63-125 mOsmol/Kg) concentrations was also recorded (see Clark et al., Blood 61 899-910 (1983)).

erythrocytes = experiment: Assay of capacity for shape change (LPC-induced echinocytosis, microscopy); type: cell-based, human; conditions: 5 mM DTBP for 1 h, then 10 μg/ml LPC
Procedure: Microscopy. Cross-linked and reversed cells were prepared as described in the section on erythrocyte preparation, etc., with the addition of 0.5% bovine serum albumin to the solution prior microscopic examination. Cells were examined using an Nikon Optiphot, equipped with PlanApo 20×objective.
Assay of capacity for shape change. To induce echinocytosis ([…]), erythrocytes were incubated with 10μg/ml LPC for 2 min at room temperature. Erythrocytes were pretreated with 5 mM DTBP for 1 h and then subjected to 10 μg/ml LPC treatment. Microscopic examination of cell morphology was performed. Erythrocytes were pretreated with 5 mM DTBP for 1 h, reversed with 10 mM DTT for 20 min and then subjected to 10 μg/ml LPC treatment. Microscopic examination followed. Erythrocyte response to LPC of normal, cross-linked and reversed cells was compared.

## COC(=N)CCSSCCC(=N)OC [DTBP, Dimethyl-3,3′-dithiobispropionimidate]
Red blood cells; Osmo-scan
  DImax: 0.30
  Omin (osmolality corresponding to the minimum DI): 125 mOsmol/Kg
  O′ (osmolality corresponding to 1/2DImax at hypertonic salt): 264 mOsmol/Kg
Red blood cells; Osmo-scan, FIG. 7
  reduction of DImax: 36%
Red blood cells; Shear-scan, FIG. 6
  reduction of red cell deformability as a function of shear stress: over half
erythrocytes
  effect on LPC-induced echinocytosis: completely blocked
